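Following 48 hours of exposure in 96-well plates, responses at five concentrations were used to interpolate endpoints linearly. TGI: total growth inhibition.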
Columns and labels:
Test in all cases: NCI-60 cell line screen, 48 h
UACC-62 melanoma = test system: UACC-62 melanoma
A549 NSCLC = test system: A549 NSCLC
NCI/ADR-RES ovarian = test system: NCI/ADR-RES ovarian
MOLT-4 leukemia = test system: MOLT-4 leukemia
SK-OV-3 ovarian = test system: SK-OV-3 ovarian
A498 renal = test system: A498 renal
SF-539 CNS = test system: SF-539 CNS
UO-31 renal = test system: UO-31 renal
COLO 205 colon = test system: COLO 205 colon
OVCAR-3 ovarian = test system: OVCAR-3 ovarian
OVCAR-5 ovarian = test system: OVCAR-5 ovarian
HT29 colon = test system: HT29 colon
MALME-3M melanoma = test system: MALME-3M melanoma
SF-295 CNS = test system: SF-295 CNS
SNB-75 CNS = test system: SNB-75 CNS
HOP-62 NSCLC = test system: HOP-62 NSCLC
MDA-MB-435 = test system: MDA-MB-435
UACC-257 melanoma = test system: UACC-257 melanoma
SR leukemia = test system: SR leukemia
SK-MEL-28 melanoma = test system: SK-MEL-28 melanoma
HCT-15 colon = test system: HCT-15 colon
NCI-H23 lung = test system: NCI-H23 lung
BT-549 breast = test system: BT-549 breast
M14 melanoma = test system: M14 melanoma
786-0 renal = test system: 786-0 renal
RPMI-8226 leukemia = test system: RPMI-8226 leukemia
CAKI-1 renal = test system: CAKI-1 renal
SNB-19 CNS = test system: SNB-19 CNS
PC-3 prostate = test system: PC-3 prostate
MCF7 breast = test system: MCF7 breast
K-562 leukemia = test system: K-562 leukemia
DU-145 prostate = test system: DU-145 prostate
NCI-H522 lung = test system: NCI-H522 lung
ACHN renal = test system: ACHN renal
OVCAR-8 ovarian = test system: OVCAR-8 ovarian
MDA-MB-231 breast = test system: MDA-MB-231 breast
LOX IMVI melanoma = test system: LOX IMVI melanoma
TK-10 renal = test system: TK-10 renal
U251 CNS = test system: U251 CNS
NCI-H460 lung = test system: NCI-H460 lung
MDA-N = test system: MDA-N
HL-60(TB) leukemia = test system: HL-60(TB) leukemia
EKVX NSCLC = test system: EKVX NSCLC
SK-MEL-2 melanoma = test system: SK-MEL-2 melanoma
SN12C renal = test system: SN12C renal
OVCAR-4 ovarian = test system: OVCAR-4 ovarian
HCT-116 colon = test system: HCT-116 colon
SF-268 CNS = test system: SF-268 CNS
NCI-H226 lung = test system: NCI-H226 lung
T-47D breast = test system: T-47D breast
SK-MEL-5 melanoma = test system: SK-MEL-5 melanoma
SW-620 colon = test system: SW-620 colon
HOP-92 NSCLC = test system: HOP-92 NSCLC
KM12 colon = test system: KM12 colon
HS 578T breast = test system: HS 578T breast
HCC-2998 colon = test system: HCC-2998 colon
IGROV1 ovarian = test system: IGROV1 ovarian
RXF 393 renal = test system: RXF 393 renal

Structure (SMILES): Cc1ccc(S(=O)(=O)OC2=C/C(=N\c3onc(C)c3C)c3ccccc3C2=O)cc1
- TGI (UACC-62 melanoma): 57.7 µM
- TGI (A549 NSCLC): > 100 µM
- TGI (NCI/ADR-RES ovarian): 77.1 µM
- TGI (MOLT-4 leukemia): 24.2 µM
- TGI (SK-OV-3 ovarian): > 100 µM
- TGI (A498 renal): > 100 µM
- TGI (SF-539 CNS): 79 µM
- TGI (UO-31 renal): 30.7 µM
- TGI (COLO 205 colon): > 100 µM
- TGI (OVCAR-3 ovarian): 30.1 µM
- TGI (OVCAR-5 ovarian): 42.1 µM
- TGI (HT29 colon): > 100 µM
- TGI (MALME-3M melanoma): 43.3 µM
- TGI (SF-295 CNS): > 100 µM
- TGI (SNB-75 CNS): > 100 µM
- TGI (HOP-62 NSCLC): 54.8 µM
- TGI (MDA-MB-435): 31.8 µM
- TGI (UACC-257 melanoma): 34.4 µM
- TGI (SR leukemia): > 100 µM
- TGI (SK-MEL-28 melanoma): > 100 µM
- TGI (HCT-15 colon): > 100 µM
- TGI (NCI-H23 lung): 73.8 µM
- TGI (BT-549 breast): 71.9 µM
- TGI (M14 melanoma): > 100 µM
- TGI (786-0 renal): > 100 µM
- TGI (RPMI-8226 leukemia): 53.8 µM
- TGI (CAKI-1 renal): 37.8 µM
- TGI (SNB-19 CNS): 64.8 µM
- TGI (PC-3 prostate): 40.1 µM
- TGI (MCF7 breast): 33.5 µM
- TGI (K-562 leukemia): 18.9 µM
- TGI (DU-145 prostate): > 100 µM
- TGI (NCI-H522 lung): 21.1 µM
- TGI (ACHN renal): > 100 µM
- TGI (OVCAR-8 ovarian): 36.8 µM
- TGI (MDA-MB-231 breast): 41.6 µM
- TGI (LOX IMVI melanoma): 37.9 µM
- TGI (TK-10 renal): 92.7 µM
- TGI (U251 CNS): 21.1 µM
- TGI (NCI-H460 lung): > 100 µM
- TGI (MDA-N): > 100 µM
- TGI (HL-60(TB) leukemia): > 100 µM
- TGI (EKVX NSCLC): > 100 µM
- TGI (SK-MEL-2 melanoma): 26 µM
- TGI (SN12C renal): 37.4 µM
- TGI (OVCAR-4 ovarian): 29.9 µM
- TGI (HCT-116 colon): 37.7 µM
- TGI (SF-268 CNS): 77.5 µM
- TGI (NCI-H226 lung): > 100 µM
- TGI (T-47D breast): 64.8 µM
- TGI (SK-MEL-5 melanoma): 38.7 µM
- TGI (SW-620 colon): 80.1 µM
- TGI (HOP-92 NSCLC): 33.2 µM
- TGI (KM12 colon): 43 µM
- TGI (HS 578T breast): > 100 µM

Structure (SMILES): CN(C)CCn1c(=O)c2ccc3c4c(nn3CCN(C)C)c3cc(N)ccc3n(c1=O)c24
- TGI (UACC-62 melanoma): 0.281 µM
- TGI (A549 NSCLC): 0.114 µM
- TGI (NCI/ADR-RES ovarian): 0.749 µM
- TGI (MOLT-4 leukemia): > 100 µM
- TGI (SK-OV-3 ovarian): 0.621 µM
- TGI (A498 renal): 0.364 µM
- TGI (SF-539 CNS): 0.579 µM
- TGI (UO-31 renal): 0.0501 µM
- TGI (COLO 205 colon): 0.199 µM
- TGI (OVCAR-3 ovarian): 0.164 µM
- TGI (OVCAR-5 ovarian): 0.111 µM
- TGI (MALME-3M melanoma): 0.257 µM
- TGI (SF-295 CNS): 0.584 µM
- TGI (SNB-75 CNS): 0.0971 µM
- TGI (HOP-62 NSCLC): 0.201 µM
- TGI (MDA-MB-435): 0.0654 µM
- TGI (UACC-257 melanoma): 0.433 µM
- TGI (SR leukemia): > 42.5 µM
- TGI (SK-MEL-28 melanoma): 0.394 µM
- TGI (HCT-15 colon): 0.222 µM
- TGI (NCI-H23 lung): 0.021 µM
- TGI (BT-549 breast): 0.78 µM
- TGI (M14 melanoma): 0.18 µM
- TGI (786-0 renal): 0.0573 µM
- TGI (RPMI-8226 leukemia): 60.7 µM
- TGI (CAKI-1 renal): 1.47 µM
- TGI (SNB-19 CNS): 0.455 µM
- TGI (HCC-2998 colon): 1.04 µM
- TGI (PC-3 prostate): 0.114 µM
- TGI (MCF7 breast): 1.17 µM
- TGI (K-562 leukemia): 16.7 µM
- TGI (DU-145 prostate): 0.438 µM
- TGI (NCI-H522 lung): 0.27 µM
- TGI (ACHN renal): 0.428 µM
- TGI (OVCAR-8 ovarian): 0.454 µM
- TGI (MDA-MB-231 breast): 0.195 µM
- TGI (LOX IMVI melanoma): 0.127 µM
- TGI (TK-10 renal): 3.8 µM
- TGI (U251 CNS): 3.39 µM
- TGI (NCI-H460 lung): 0.0904 µM
- TGI (MDA-N): 0.0752 µM
- TGI (HL-60(TB) leukemia): 0.506 µM
- TGI (EKVX NSCLC): 0.237 µM
- TGI (SK-MEL-2 melanoma): 0.089 µM
- TGI (SN12C renal): 0.069 µM
- TGI (OVCAR-4 ovarian): 0.0511 µM
- TGI (HCT-116 colon): 0.0716 µM
- TGI (IGROV1 ovarian): 4.45 µM
- TGI (SF-268 CNS): 0.221 µM
- TGI (NCI-H226 lung): 0.759 µM
- TGI (RXF 393 renal): 0.173 µM
- TGI (T-47D breast): 0.849 µM
- TGI (SK-MEL-5 melanoma): 0.237 µM
- TGI (SW-620 colon): 1.87 µM
- TGI (KM12 colon): 0.63 µM
- TGI (HS 578T breast): 1.03 µM

Source: PubChem BioAssay (NCI)
